Assay results taken from patent US20220193030A1, “USE OF GINKGO TERPENE LACTONE IN PREPARING DRUG FOR PREVENTING AND/OR TREATING GUILLAIN-BARRE-STROHL SYNDROME” (CHENGDU BAIYU PHARMACEUTICAL CO., LTD., priority 2019, published 2022).
Marks after values point to notes of the source that are not given here.

Assays:
IL-4 = assay: mRNA level of IL-4 in sciatic nerve tissue of EAN model rabbits (RT-PCR); type: in vivo, big-ear white rabbits; settings: 14th day after modeling, ginkgolide groups 4.5 mg/kg intragastric 2 times a day, positive control 400 mg/kg·d i.p. 5 days
Description: (§1) 21 experimental groups, 8 rabbits in each group.
(§2) Positive control group: rabbit immune globulin, 400 mg/kg·d, intraperitoneal injection, for 5 consecutive days
(§3) The ginkgolide groups are set the same as Test example 1, i.e., include the ginkgolide A group to the ginkgolide K group (GA group to GK group), the bilobalide group (BB group) and the ginkgolide I group to the ginkgolide XI group, 18 groups in total. Ginkgolide used in each group has the same monomeric composition and ratio as those of Test example 1, but only differs in that the ginkgolide groups all use the same medicine administration dosage, i.e., 4.5 mg/kg.
(§4) Intragastric administration, 2 times a day. Medicines were dissolved in accessories (glycerin:ethanol=6:4 V/V) to reach 5 mg/ml, and then were configured to reach corresponding concentrations by using sterilized drinking water.
(§5) EAN rabbit modeling: a certain amount of bovine sciatic nerve myelin basic protein and an isopyknic complete Freund's adjuvant were taken, shaken up by using a test tube oscillator, sufficiently mixed, and then subcutaneously injected into a back of each rabbit at multiple points.
(§6) Anesthesia was performed on the 14th day after modeling, to take sciatic nerve tissue of rabbits, and total RNA was extracted by a Trizol method. Detection was performed by a RT-PCR method. (GBS is an autoimmune disease of a nervous system. In-vivo autoreactive T cells of a patient have a cellular immunologic response to myelin P2 antigens, to form a delayed allergic reaction peripheral nerve demyelination pathological injury. This process is mainly mediated by CD4^+T cells, also named initial Th cells that may be differentiated into Th1 and Th2 after antigenic stimulation. Th1 cytokines (represented by TNF-α and IL-12) mainly enhance a cell mediated immune response, and are inflammatory cytokines; and Th2 cytokines (represented by IL-4 and IL-10) mainly participate in an antibody mediated immune response, and have an immune down-regulation and anti-inflammation effect. In GBS and ENA research, unbalance of Th1/Th2 plays an important role in disease injuries.)
(§7) Data is represented by mean±standard deviation (x±SD). Differences between two groups were compared. When P is less than 0.05, a statistic difference occurs.

IL-12 = assay: mRNA level of IL-12 in sciatic nerve tissue of EAN model rabbits (RT-PCR); type: in vivo, big-ear white rabbits; settings: 14th day after modeling, ginkgolide groups 4.5 mg/kg intragastric 2 times a day, positive control 400 mg/kg·d i.p. 5 days
Description: as §1, §2, §3, §4, §5, §6, §7

IL-10 = assay: mRNA level of IL-10 in sciatic nerve tissue of EAN model rabbits (RT-PCR); type: in vivo, big-ear white rabbits; settings: 14th day after modeling, ginkgolide groups 4.5 mg/kg intragastric 2 times a day, positive control 400 mg/kg·d i.p. 5 days
Description: as §1, §2, §3, §4, §5, §6, §7

EAN model rats [1] = assay: Test on algesia of ankle joint (pain reaction score) of EAN model rats; type: in vivo, Lewis rats; settings: ankle dorsiflexion, score 0-5
Description: as §4
(§8) For each rat in an EAN model group, an inoculum was subcutaneously injected into foot pads of hind limbs on two sides, 200 μL/rat (100 μL per side). […] For the negative control group, isopyknic normal saline was injected. For each group of animals, medicine administration was started from the first day after immunization, for 30 days in total.
Near a peak period of disease attack of EAN model animals, a test on algesia of ankle joints was performed on EAN model animals and adjuvant control animals, and rats in a rest state were forced to bend hind legs towards foot soles (dorsiflexion). For each side, 5 tests were made, at an interval of at least 5 s. For each time of dorsiflexion, if rats screamed or obviously withdrew paws, 1 score was counted. For each side, a total score is 0-5.
(§9) Data is represented by mean±standard deviation (x±SD). For scores of symptoms and scores of algesia, a non-parametric test Mann-Whitney U was used to compare differences between two groups. When P is less than 0.05, a statistic difference occurs.

EAN model rats [2] = assay: Scores of neurological symptoms (clinical score) of EAN model rats, Test Example 1; type: in vivo, Lewis rats; parameters: key: 0 = normal, 5 = mild hind-limb paralysis, 10 = death; settings: monomers 4.5 mg/kg, combinations 6.0-13.5 mg/kg; for Clinical score D12: D12, intragastric 2 times a day; for Clinical score D14: D14, intragastric 2 times a day; for Clinical score D20: D20, intragastric 2 times a day; for Clinical score D22: D22, intragastric 2 times a day; for Clinical score D24: D24, intragastric 2 times a day; for Clinical score D26: D26, intragastric 2 times a day
Description: 20 experimental groups, 10 […] in each group.
as §4, §8
(§10) The day of molding serves as the 0th day, and after that is 30 days of observation period. Observation date is represented by D plus number, D1, D2 and D3 respectively represent Observation date 1, Observation date 2 and Observation date 3, and subsequent dates are represented in the same way. Rats were weighed once every two days, and clinical symptoms of all experimental animals were scored. Within one week of a peak period (D14-D20) of disease attack of animals, weighing and clinical symptom scoring were performed every day. Score standards are as below: 0, normal; 1, a soft tail; 2, unable to lift a tail; 3, unable to automatically correct a body position; 4, ataxia; 5, mild paralysis of hind limbs; 6, moderate paralysis of hind limbs; 7, severe paralysis of hind limbs; 8, paresis of four limbs; 9, severe paresis of four limbs; and 10, death.
as §9

TNF-α = assay: mRNA level of TNF-α in sciatic nerve tissue of EAN model rabbits (RT-PCR); type: in vivo, big-ear white rabbits; settings: 14th day after modeling, ginkgolide groups 4.5 mg/kg intragastric 2 times a day, positive control 400 mg/kg·d i.p. 5 days
Description: as §1, §2, §3, §4, §5, §6, §7

EAN model rats [3] = assay: Pre-experimental dose study: clinical score of neurological symptoms of EAN model rats; type: in vivo, Lewis rats; settings: score 0-10
Description: Persons skilled in the art learn that, pharmacological effect and dose are in a proportional relationship, i.e., a dose-effect relationship, only within a certain range.
as §8, §10, §9

Compound | Cytokines IL-4 (mRNA level, sciatic nerve tissue) (IL-4) | Cytokines IL-12 (mRNA level, sciatic nerve tissue) (IL-12) | Cytokines IL-10 (mRNA level, sciatic nerve tissue) (IL-10) | Pain reaction score (D18) (EAN model rats [1]) | Clinical score D12 (EAN model rats [2]) | Clinical score D14 (EAN model rats [2]) | Clinical score D16 (EAN model rats [2]; D16, intragastric 2 times a day) | Clinical score (D17) (EAN model rats [2]; D17, intragastric 2 times a day) | Clinical score D19 (EAN model rats [2]; D19, intragastric 2 times a day) | Clinical score D20 (EAN model rats [2]) | Clinical score D22 (EAN model rats [2]) | Clinical score D24 (EAN model rats [2]) | Clinical score D26 (EAN model rats [2]) | Cytokines TNF-α (mRNA level, sciatic nerve tissue) (TNF-α) | Clinical score (D17) (EAN model rats [3]; 2.0 mg/kg) | Clinical score (D17) (EAN model rats [3]; 4.5 mg/kg) | Clinical score (D17) (EAN model rats [3]; 15 mg/kg)
ginkgolide J | 0.551 ± 0.050 | 6.211 ± 0.489 | 0.501 ± 0.037 | 1.3 ± 0.67 | 4.4 ± 0.7 | 5.5 ± 0.5 | 6.5 ± 0.5 | 7.4 ± 0.5 | 6.2 ± 0.6 | 5.6 ± 0.5 | 4.6 ± 0.5 | 4.0 ± 0.7 | 3.2 ± 0.6 | 4.810 ± 0.070 | 7.10 ± 0.57 | 6.40 ± 0.84*^Δ | 6.30 ± 0.82*^Δ
CC(C)(C)[C@]1(O)CC2OC(=O)CC23C(=O)OC2OC(=O)[C@H](O)C231 (stereo partly drawn) [Bilobalide, bilobalide] | 0.792 ± 0.065 | 4.087 ± 0.275 | 0.783 ± 0.128 | 2.9 ± 0.74 | – | – | – | – | – | – | – | – | – | 3.054 ± 0.182 | 5.70 ± 0.67 | 4.80 ± 0.63*^Δ | 4.90 ± 0.88*^Δ
CC1=C2[C@@H](OC1=O)[C@H](O)[C@]13[C@H]4C[C@@H](C(C)(C)C)[C@]15[C@@H](OC(=O)[C@@H]5O)O[C@@]23C(=O)O4 [Ginkgolide K, ginkgolide K] | 0.557 ± 0.046 | 6.412 ± 0.169 | 0.524 ± 0.026 | 1.2 ± 0.63 | 4.5 ± 0.7 | 5.6 ± 0.5 | – | – | – | 5.5 ± 0.5 | 4.5 ± 0.5 | 3.9 ± 0.7 | 3.1 ± 0.6 | 4.739 ± 0.094 | 7.20 ± 0.42 | 6.50 ± 0.85*^Δ | 6.70 ± 0.82*^Δ
ginkgolide C | 0.585 ± 0.053 | 6.009 ± 0.357 | 0.561 ± 0.090 | 1.9 ± 0.88 | 4.4 ± 0.7 | 5.2 ± 0.8 | – | – | – | – | 4.4 ± 0.5 | 3.8 ± 0.8 | 3.1 ± 0.6 | 4.548 ± 0.154 | 6.90 ± 0.88 | 6.10 ± 0.57*^Δ | 6.00 ± 0.67*^Δ
C[C@@H]1C(=O)O[C@H]2C[C@@]34[C@H]5C[C@@H](C(C)(C)C)[C@]36[C@@H](OC(=O)[C@@H]6O)O[C@@]4(C(=O)O5)[C@]21O [Ginkgolide A, ginkgolide A] | 0.569 ± 0.048 | 5.977 ± 0.141 | 0.584 ± 0.039 | 2.0 ± 0.67 | 4.4 ± 0.5 | 5.3 ± 0.5 | – | – | – | – | 4.4 ± 0.5 | 3.7 ± 0.8 | 3.1 ± 0.6 | 4.693 ± 0.115 | 7.00 ± 0.82 | 6.10 ± 0.74*^Δ | 6.00 ± 1.25*^Δ
C[C@@H]1C(=O)O[C@@H]2[C@H]1[C@@]13OC4OC(=O)[C@H](O)C45[C@H](C(C)(C)C)[C@@H](O)C(OC1=O)[C@]53[C@H]2O (stereo partly drawn) [Ginkgolide M, ginkgolide M] | 0.558 ± 0.050 | 6.260 ± 0.411 | 0.550 ± 0.061 | 1.4 ± 0.52 | 4.5 ± 0.7 | 5.6 ± 0.5 | – | – | – | 5.5 ± 0.5 | 4.6 ± 0.5 | 4.0 ± 0.7 | 3.2 ± 0.6 | 4.797 ± 0.147 | 7.10 ± 0.32 | 6.40 ± 0.97*^Δ | 6.50 ± 0.71*^Δ
CC1C(=O)OC2C(O)C34C5CC(C(C)(C)C)C36C(OC(=O)C6O)OC4(C(=O)O5)C12O (stereo not drawn) [Ginkgolide B, ginkgolide B] | 0.769 ± 0.041 | 3.928 ± 0.409 | 0.813 ± 0.055 | 3.0 ± 0.67 | – | – | – | – | – | – | – | – | – | 2.978 ± 0.102 | 6.10 ± 1.10 | 5.10 ± 0.57*^Δ | 5.20 ± 0.63*^Δ
